Tests used:
Assay in all cases: Biomarker study proliferation (CellTiter-Glo)
Assay type in all cases: cell-based
A2058 = tested on: A2058
In short: (§1)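 Overnight-plated cells (5000/well, 37 °C, 5% CO2) receive compound diluted through an OPTIMEM + 10% FBS intermediate plate. After one week, CellTiter-Glo is added and luminescence is read.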

OVCAR8 = tested on: OVCAR8
In short: as §1

HOS = tested on: HOS
In short: as §1

SNU5 = tested on: SNU5
In short: as §1

HLE = tested on: HLE
In short: as §1

MDST8 = tested on: MDST8
In short: as §1

MCF7 = tested on: MCF7
In short: as §1

SKOV3 = tested on: SKOV3
In short: as §1

NCIH441 = tested on: NCIH441
In short: as §1

HT1197 = tested on: HT1197
In short: as §1

NCIH1666 = tested on: NCIH1666
In short: as §1

KELLY = tested on: KELLY
In short: as §1

SW1271 = tested on: SW1271
In short: as §1

SNU1196 = tested on: SNU1196
In short: as §1

HCC827 = tested on: HCC827
In short: as §1

K562 = tested on: K562
In short: as §1

HUH1 = tested on: HUH1
In short: as §1

RT112 = tested on: RT112
In short: as §1

KYSE270 = tested on: KYSE270
In short: as §1

[1] = Homo sapiens, 168 h, read-out: Anti-proliferation effect IC50

SMILES: Cc1cc(NC2CCN(C(=O)O[C@H]3CCN(C(=O)/C=C/CN(C)C)C3)CC2)n2ncc(C(C)C)c2n1 [Example 1, [(3S)-1-[(E)-4-(dimethylamino)but-2-enoyl]pyrrolidin-3-yl] 4-[(3-isopropyl-5-methyl-pyrazolo[1,5-a]pyrimidin-7-yl)amino]piperidine-1-carboxylate]
- Anti-proliferation effect % Inh. (A2058; A2058, SKIN, 7 days): 97%
- Anti-proliferation effect Outcome (A2058; A2058, SKIN, 7 days): Cytotoxic (cytotoxic (IC50<1 μM and % inhibition ≥70%))
- IC50 (A2058; Homo sapiens, A2058, 168 h, read-out: Anti-proliferation effect IC50): 30 nM
- IC50 (OVCAR8; Homo sapiens, OVCAR-8, 168 h, read-out: Anti-proliferation effect IC50): 65 nM
- Anti-proliferation effect % Inh. (OVCAR8; OVCAR8, OVARY, 7 days): 90%
- Anti-proliferation effect Outcome (OVCAR8; OVCAR8, OVARY, 7 days): Cytotoxic (cytotoxic (IC50<1 μM and % inhibition ≥70%))
- Anti-proliferation effect % Inh. (HOS; BONE, 7 days): 72%
- Anti-proliferation effect Outcome (HOS; BONE, 7 days): Cytotoxic (cytotoxic (IC50<1 μM and % inhibition ≥70%))
- IC50 (HOS; [1]): 90 nM
- IC50 (SNU5; Homo sapiens, SNU-5, 168 h, read-out: Anti-proliferation effect IC50): 39 nM
- Anti-proliferation effect % Inh. (SNU5; SNU5, STOMACH, 7 days): 79%
- Anti-proliferation effect Outcome (SNU5; SNU5, STOMACH, 7 days): Cytotoxic (cytotoxic (IC50<1 μM and % inhibition ≥70%))
- IC50 (HLE; [1]): 30 nM
- Anti-proliferation effect % Inh. (HLE; LIVER, 7 days): 77%
- Anti-proliferation effect Outcome (HLE; LIVER, 7 days): Cytotoxic (cytotoxic (IC50<1 μM and % inhibition ≥70%))
- IC50 (MDST8; MDST8, 168 h, read-out: Anti-proliferation effect IC50): 49 nM
- Anti-proliferation effect % Inh. (MDST8; MDST8, INTESTINE, 7 days): 88%
- Anti-proliferation effect Outcome (MDST8; MDST8, INTESTINE, 7 days): Cytotoxic (cytotoxic (IC50<1 μM and % inhibition ≥70%))
- IC50 (MCF7; Homo sapiens, MCF7, 168 h, read-out: Anti-proliferation effect IC50): 155 nM
- Anti-proliferation effect % Inh. (MCF7; MCF7, BREAST, 7 days): 58%
- Anti-proliferation effect Outcome (MCF7; MCF7, BREAST, 7 days): Cytostatic (cytostatic (IC50<1 μM and % inhibition <70%))
- IC50 (SKOV3; Homo sapiens, SK-OV-3, 168 h, read-out: Anti-proliferation effect IC50): > 10000 nM
- Anti-proliferation effect % Inh. (SKOV3; SKOV3, OVARY, 7 days): 27%
- Anti-proliferation effect Outcome (SKOV3; SKOV3, OVARY, 7 days): Insensitive (insensitive (IC50≥1 μM))
- IC50 (NCIH441; Homo sapiens, NCI-H441, 168 h, read-out: Anti-proliferation effect IC50): 14 nM
- Anti-proliferation effect % Inh. (NCIH441; NCIH441, LUNG, 7 days): 84%
- Anti-proliferation effect Outcome (NCIH441; NCIH441, LUNG, 7 days): Cytotoxic (cytotoxic (IC50<1 μM and % inhibition ≥70%))
- Anti-proliferation effect % Inh. (HT1197; HT1197, URINARY, 7 days): 55%
- Anti-proliferation effect Outcome (HT1197; HT1197, URINARY, 7 days): Cytostatic (cytostatic (IC50<1 μM and % inhibition <70%))
- IC50 (HT1197; Homo sapiens, HT1197, 168 h, read-out: Anti-proliferation effect IC50): 281 nM
- IC50 (NCIH1666; Homo sapiens, NCI-H1666, 168 h, read-out: Anti-proliferation effect IC50): 161 nM
- Anti-proliferation effect % Inh. (NCIH1666; NCIH1666, LUNG, 7 days): 59%
- Anti-proliferation effect Outcome (NCIH1666; NCIH1666, LUNG, 7 days): Cytostatic (cytostatic (IC50<1 μM and % inhibition <70%))
- Anti-proliferation effect % Inh. (KELLY; KELLY, CNS, 7 days): 80%
- Anti-proliferation effect Outcome (KELLY; KELLY, CNS, 7 days): Cytotoxic (cytotoxic (IC50<1 μM and % inhibition ≥70%))
- IC50 (KELLY; Kelly, 168 h, read-out: Anti-proliferation effect IC50): 58 nM
- IC50 (SW1271; SW1271, 168 h, read-out: Anti-proliferation effect IC50): 24 nM
- Anti-proliferation effect % Inh. (SW1271; SW1271, LUNG, 7 days): 67%
- Anti-proliferation effect Outcome (SW1271; SW1271, LUNG, 7 days): Cytostatic (cytostatic (IC50<1 μM and % inhibition <70%))
- IC50 (SNU1196; 168 h, read-out: Anti-proliferation effect IC50): 43 nM
- Anti-proliferation effect % Inh. (SNU1196; SNU1196, BILIARY, 7 days): 68%
- Anti-proliferation effect Outcome (SNU1196; SNU1196, BILIARY, 7 days): Cytostatic (cytostatic (IC50<1 μM and % inhibition <70%))
- Anti-proliferation effect % Inh. (HCC827; HCC827, LUNG, 7 days): 69%
- Anti-proliferation effect Outcome (HCC827; HCC827, LUNG, 7 days): Cytostatic (cytostatic (IC50<1 μM and % inhibition <70%))
- IC50 (HCC827; Homo sapiens, HCC827, 168 h, read-out: Anti-proliferation effect IC50): 55 nM
- IC50 (K562; Homo sapiens, K562, 168 h, read-out: Anti-proliferation effect IC50): > 10000 nM
- Anti-proliferation effect % Inh. (K562; K562, BLOOD, 7 days): −191%
- Anti-proliferation effect Outcome (K562; K562, BLOOD, 7 days): Insensitive (insensitive (IC50≥1 μM))
- Anti-proliferation effect % Inh. (HUH1; HUH1, LIVER, 7 days): 72%
- Anti-proliferation effect Outcome (HUH1; HUH1, LIVER, 7 days): Cytotoxic (cytotoxic (IC50<1 μM and % inhibition ≥70%))
- IC50 (HUH1; Homo sapiens, HuH-1, 168 h, read-out: Anti-proliferation effect IC50): 128 nM
- IC50 (RT112; Homo sapiens, RT-112, 168 h, read-out: Anti-proliferation effect IC50): 32 nM
- Anti-proliferation effect % Inh. (RT112; RT112, URINARY, 7 days): 87%
- Anti-proliferation effect Outcome (RT112; RT112, URINARY, 7 days): Cytotoxic (cytotoxic (IC50<1 μM and % inhibition ≥70%))
- IC50 (KYSE270; Homo sapiens, KYSE-270, 168 h, read-out: Anti-proliferation effect IC50): > 10000 nM
- Anti-proliferation effect % Inh. (KYSE270; KYSE270, OESOPHAGUS, 7 days): −180%
- Anti-proliferation effect Outcome (KYSE270; KYSE270, OESOPHAGUS, 7 days): Insensitive (insensitive (IC50≥1 μM))

Source: patent publication US20210032257A1, “(E)-1-(4-(DIMETHYLAMINO)BUT-2-ENOYL)PYRROLIDIN-3-YL 4-((3-ISOPROPYL-5-METHYLPYRAZOLO[1,5-A]PYRIMIDIN-7-YL)AMINO)PIPERIDINE-1-CARBOXYLATE FOR INHIBITING CDK7” (Eli Lilly and Company, priority 2017, published 2021)
